Measured values published in patent US7691885B2, “Pyridones useful as inhibitors of kinases” (Vertex Pharmaceuticals Incorporated, priority 2005, dated 2010).

Molecular target: T1, human Itk kinase (Homo sapiens, UniProt Q08881)
T1 sequence (Q08881 1-620): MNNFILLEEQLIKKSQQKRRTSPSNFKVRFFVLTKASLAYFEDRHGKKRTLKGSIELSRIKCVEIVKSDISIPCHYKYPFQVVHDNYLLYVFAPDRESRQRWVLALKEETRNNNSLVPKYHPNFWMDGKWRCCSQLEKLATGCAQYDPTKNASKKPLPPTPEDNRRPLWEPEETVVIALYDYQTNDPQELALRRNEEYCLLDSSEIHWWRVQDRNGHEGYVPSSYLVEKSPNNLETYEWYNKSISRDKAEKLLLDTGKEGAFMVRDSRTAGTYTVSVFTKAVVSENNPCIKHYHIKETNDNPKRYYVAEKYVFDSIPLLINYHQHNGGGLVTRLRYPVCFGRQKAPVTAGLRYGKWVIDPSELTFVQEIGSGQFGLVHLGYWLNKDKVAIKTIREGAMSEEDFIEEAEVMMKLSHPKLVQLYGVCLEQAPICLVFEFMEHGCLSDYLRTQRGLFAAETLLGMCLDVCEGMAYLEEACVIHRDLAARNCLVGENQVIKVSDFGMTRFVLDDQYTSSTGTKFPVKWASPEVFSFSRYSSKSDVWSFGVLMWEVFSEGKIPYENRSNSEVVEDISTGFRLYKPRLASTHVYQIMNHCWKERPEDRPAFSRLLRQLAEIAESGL
Test: Itk inhibition assay (radioactivity-based or spectrophotometric coupled enzyme assay)
Assay type: biochemical
Description: The compounds of the present invention can be evaluated as inhibitors of human Itk kinase using either a radioactivity-based or spectrophotometric assay. In general, compounds of the invention, including the compound in Table 1, are effective for the inhibition of ITK. Specifically, compound I.1 has a Ki value of <2 uM.
Assays are carried out in a mixture of 100 mM HEPES (pH 7.5), 10 mM MgCl2, 25 mM NaCl, 0.01% BSA and 1 mM DTT. Final substrate concentrations are 15 μM [γ-^33P]ATP (400 μCi ^33P ATP/μmol ATP, Amersham Pharmacia Biotech/Sigma Chemicals) and 2 μM peptide (SAM68 protein Δ332-443). Assays are carried out at 25° C. in the presence of 30 nM Itk. An assay stock buffer solution is prepared containing all of the reagents listed above, with the exception of ATP and the test compound of interest. […]
IC50 data are calculated from non-linear regression analysis of the initial rate data using the Prism software package (GraphPad Prism version 3.0cx for Macintosh, GraphPad Software, San Diego Calif., USA). […]
Ki(app) data are calculated from non-linear regression analysis of the initial rate data using the Prism software package (GraphPad Prism version 3.0cx for Macintosh, GraphPad Software, San Diego Calif., USA). […]

In the case of `O=c1[nH]cc(-c2ccccc2)cc1-c1cc2ccccc2[nH]1` [Compound I.1, 3-(1H-indol-2-yl)-5-phenylpyridin-2(1H)-one], the Ki is reported as under 2000 nM.
